According to ChEMBL document CHEMBL1156642, “Discovery of betamethasone 17alpha-carbamates as dissociated glucocorticoid receptor modulators in the rat” (Bioorg Med Chem, 2008):
The source made the active and inactive calls. No cut-off for these calls is given here.

How the values were obtained:
Rattus norvegicus [1] = assay: Inhibition of granuloma formation in cotton pellet implanted Lewis rat at 19 mg/kg, po bid; type: functional
Mus musculus = species: Mus musculus; assay: Inhibition of LPS-induced TNFalpha production in mouse; type: functional
[2] = Volume of distribution at steady state in rat; type: ADME, organism-based; details: in vivo, read-out: Vdss
Rattus norvegicus [3] = assay: Effect on plasma triglyceride level in Zucker fatty rat at 30 mg/kg, after 5 days
Rattus norvegicus [4] = assay: Effect on adrenal weight in Lewis rat with implanted cotton pellets at 10 mg/kg, po bid; type: functional
Rattus norvegicus [5] = assay: Inhibition of granuloma formation in cotton pellet implanted Lewis rat at 5.0 mg/kg, po bid; type: functional
Rattus norvegicus [6] = assay: Effect on spleen weight in Lewis rat with implanted cotton pellets at 19 mg/kg, po bid; type: functional
Rattus norvegicus [7] = assay: Inhibition of granuloma formation in cotton pellet implanted Lewis rat at 10 mg/kg, po bid; type: functional
Rattus norvegicus [8] = assay: Effect on adrenal weight in Lewis rat with implanted cotton pellets at 5.0 mg/kg, po bid; type: functional
Rattus norvegicus [9] = assay: Effect on body weight change in Lewis rat with implanted cotton pellets at 10 mg/kg, po bid for 4 days; type: functional
Progesterone receptor = target: T1, Progesterone receptor (Homo sapiens, UniProt P06401); assay: Inhibition of human progesterone receptor
T1 sequence (P06401 whole entry): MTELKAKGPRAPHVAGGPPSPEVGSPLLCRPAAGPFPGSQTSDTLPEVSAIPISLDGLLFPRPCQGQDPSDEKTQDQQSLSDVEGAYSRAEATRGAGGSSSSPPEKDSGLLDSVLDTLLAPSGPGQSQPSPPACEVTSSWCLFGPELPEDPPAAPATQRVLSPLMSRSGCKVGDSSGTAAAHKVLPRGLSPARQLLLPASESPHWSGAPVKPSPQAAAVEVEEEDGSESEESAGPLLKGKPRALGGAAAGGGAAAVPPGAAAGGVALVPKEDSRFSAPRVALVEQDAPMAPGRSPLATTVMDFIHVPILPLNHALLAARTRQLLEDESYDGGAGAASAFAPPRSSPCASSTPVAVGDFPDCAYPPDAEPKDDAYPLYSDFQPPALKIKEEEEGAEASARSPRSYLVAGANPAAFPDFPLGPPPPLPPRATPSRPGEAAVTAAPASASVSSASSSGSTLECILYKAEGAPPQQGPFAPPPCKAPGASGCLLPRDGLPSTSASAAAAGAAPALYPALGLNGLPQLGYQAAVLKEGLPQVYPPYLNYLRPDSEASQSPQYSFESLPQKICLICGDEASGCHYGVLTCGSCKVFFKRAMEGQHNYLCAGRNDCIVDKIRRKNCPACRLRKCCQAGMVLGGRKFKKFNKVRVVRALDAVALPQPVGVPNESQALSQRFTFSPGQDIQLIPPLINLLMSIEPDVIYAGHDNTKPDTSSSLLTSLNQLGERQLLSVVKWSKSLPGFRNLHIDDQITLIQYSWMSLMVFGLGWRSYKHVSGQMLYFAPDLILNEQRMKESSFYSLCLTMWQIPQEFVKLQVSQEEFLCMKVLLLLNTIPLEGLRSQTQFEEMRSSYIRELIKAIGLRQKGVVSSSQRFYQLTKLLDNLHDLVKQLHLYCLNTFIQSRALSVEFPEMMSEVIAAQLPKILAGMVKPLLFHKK

Rattus norvegicus [10] = assay: Effect on thymus weight in Lewis rat with implanted cotton pellets at 10 mg/kg, po bid; type: functional
Rattus norvegicus [11] = assay: Effect on body weight change in Lewis rat with implanted cotton pellets at 19 mg/kg, po bid for 4 days; type: functional
[12] = Oral bioavailability in rat; type: ADME, organism-based; details: in vivo
Rattus norvegicus [13] = assay: Effect on adrenal weight in Lewis rat with implanted cotton pellets at 19 mg/kg, po bid; type: functional
[14] = Half life in rat; type: ADME, organism-based; details: in vivo
[15] = Plasma clearance in rat; type: ADME, organism-based
Rattus norvegicus [16] = assay: Effect on body weight change in Lewis rat with implanted cotton pellets at 19 mg/kg, po bid for 7 days; type: functional
Rattus norvegicus [17] = assay: Effect on body weight change in Zucker fatty rat at 30 mg/kg, after 5 days
Rattus norvegicus [18] = assay: Effect on body weight change in Lewis rat with implanted cotton pellets at 5.0 mg/kg, po bid for 4 days; type: functional
Rattus norvegicus [19] = assay: Effect on body weight change in Lewis rat with implanted cotton pellets at 5.0 mg/kg, po bid for 7 days; type: functional
[20] = target: T2, Interstitial collagenase (Homo sapiens) (UniProt P03956); assay: Inhibition of glucocorticoid-mediated human MMP1 expression in PMA stimulated A549 cells assessed as MMP1 protein level by ELISA relative to Dexamethasone; type: cell-based; set-up: scale not given: the % may be the effect or the level left
T2 sequence (whole entry): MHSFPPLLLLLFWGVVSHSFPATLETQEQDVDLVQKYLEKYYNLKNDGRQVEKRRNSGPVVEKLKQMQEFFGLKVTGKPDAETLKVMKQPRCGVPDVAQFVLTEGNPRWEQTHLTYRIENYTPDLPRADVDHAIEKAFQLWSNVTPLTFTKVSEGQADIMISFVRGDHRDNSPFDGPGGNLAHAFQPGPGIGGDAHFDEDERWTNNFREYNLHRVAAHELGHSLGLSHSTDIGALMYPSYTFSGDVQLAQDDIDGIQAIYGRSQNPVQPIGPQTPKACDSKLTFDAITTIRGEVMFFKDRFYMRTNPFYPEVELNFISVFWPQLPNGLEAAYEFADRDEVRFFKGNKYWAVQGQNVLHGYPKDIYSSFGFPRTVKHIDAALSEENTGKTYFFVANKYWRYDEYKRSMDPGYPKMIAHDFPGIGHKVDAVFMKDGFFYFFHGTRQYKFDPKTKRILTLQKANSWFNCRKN

Rattus norvegicus [21] = assay: Effect on spleen weight in Lewis rat with implanted cotton pellets at 10 mg/kg, po bid; type: functional
Rattus norvegicus [22] = assay: Effect on thymus weight in Lewis rat with implanted cotton pellets at 19 mg/kg, po bid; type: functional
Rattus norvegicus [23] = assay: Effect on thymus weight in Lewis rat with implanted cotton pellets at 5.0 mg/kg, po bid; type: functional
Rattus norvegicus [24] = assay: Effect on body weight change in Lewis rat with implanted cotton pellets at 10 mg/kg, po bid for 7 days; type: functional
Glucocorticoid receptor = target: T3, Glucocorticoid receptor (Homo sapiens, UniProt P04150)
T3 sequence (P04150 whole entry): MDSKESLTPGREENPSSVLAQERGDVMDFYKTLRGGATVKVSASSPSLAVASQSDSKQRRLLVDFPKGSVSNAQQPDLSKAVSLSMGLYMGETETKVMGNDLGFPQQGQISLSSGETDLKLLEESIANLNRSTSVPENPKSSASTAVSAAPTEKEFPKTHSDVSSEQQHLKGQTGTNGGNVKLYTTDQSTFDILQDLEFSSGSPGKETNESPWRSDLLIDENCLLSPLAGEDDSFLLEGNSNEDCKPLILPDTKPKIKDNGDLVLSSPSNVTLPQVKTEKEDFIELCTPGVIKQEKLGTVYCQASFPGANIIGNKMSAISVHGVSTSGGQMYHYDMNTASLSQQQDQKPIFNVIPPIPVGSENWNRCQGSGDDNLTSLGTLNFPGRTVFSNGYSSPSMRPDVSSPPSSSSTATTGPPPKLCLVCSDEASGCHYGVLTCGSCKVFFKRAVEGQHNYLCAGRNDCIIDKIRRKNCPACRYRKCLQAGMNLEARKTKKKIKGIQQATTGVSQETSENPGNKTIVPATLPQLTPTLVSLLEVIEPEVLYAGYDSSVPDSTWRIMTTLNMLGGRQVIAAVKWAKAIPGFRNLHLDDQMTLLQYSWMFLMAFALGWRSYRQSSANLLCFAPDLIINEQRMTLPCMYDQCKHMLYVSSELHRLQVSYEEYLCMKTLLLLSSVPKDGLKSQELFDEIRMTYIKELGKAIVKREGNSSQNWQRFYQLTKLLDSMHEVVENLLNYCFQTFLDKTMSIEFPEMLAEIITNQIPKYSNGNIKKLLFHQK
Description: Inhibition of human glucocorticoid receptor

Rattus norvegicus [25] = species: Rattus norvegicus; assay: Transactivation activity of glutamine synthase in rat skeletal muscle cells relative to Dexamethasone; type: cell-based
Rattus norvegicus [26] = assay: Effect on plasma glucose level in nonfasted Zucker fatty rat at 30 mg/kg, after 5 days
Rattus norvegicus [27] = assay: Effect on plasma insulin level in Zucker fatty rat at 30 mg/kg, after 5 days
Rattus norvegicus [28] = assay: Effect on spleen weight in Lewis rat with implanted cotton pellets at 5.0 mg/kg, po bid; type: functional

CCNC(=O)O[C@]1(C(=O)CO)[C@@H](C)C[C@H]2[C@@H]3CCC4=CC(=O)C=C[C@]4(C)[C@@]3(F)[C@@H](O)C[C@@]21C
inhibition in vivo at 19 mg/kg (Rattus norvegicus [1]): 44.6% | ED50 (Mus musculus): 0.1 mg/kg | Vd [2]: 3.22 L/kg | Activity (Rattus norvegicus [3]): Active | Activity (Rattus norvegicus [4]): 36.8 mg | inhibition in vivo at 5 mg/kg (Rattus norvegicus [5]): 35.6% | Activity (Rattus norvegicus [6]): 305.3 mg | inhibition in vivo at 10 mg/kg (Rattus norvegicus [7]): 33.5% | Activity (Rattus norvegicus [8]): 39 mg | Activity (Rattus norvegicus [9]): 7.3 g | IC50 (Progesterone receptor): > 1000 nM | Activity (Rattus norvegicus [10]): 144.9 mg | Activity (Rattus norvegicus [11]): 5.6 g | bioavailability [12]: 43% | Activity (Rattus norvegicus [13]): 30.8 mg | half-life [14]: 2.2 h | clearance [15]: 26 mL/min/kg | Activity (Rattus norvegicus [16]): 7.5 g | Activity (Rattus norvegicus [17]): Active | Activity (Rattus norvegicus [18]): 5.9 g | Activity (Rattus norvegicus [19]): 11 g | Activity [20]: 104% | Activity (Rattus norvegicus [21]): 311.2 mg | Activity (Rattus norvegicus [22]): 119.9 mg | Activity (Rattus norvegicus [23]): 170.7 mg | Activity (Rattus norvegicus [24]): 10 g | IC50 (Glucocorticoid receptor): 5.1 nM | Activity (Rattus norvegicus [25]): 23.4% | Activity (Rattus norvegicus [26]): Active | Activity (Rattus norvegicus [27]): Active | Activity (Rattus norvegicus [28]): 330.9 mg
